According to patent US20010049389A1, “Arthropod-controlling composition” (priority 2000, published 2001):

Columns and labels:
Type in all cases: in vivo
[1] = system: female adult common mosquitoes (Culex pipiens pallens); assay: Test Example 2: oil solution spray in glass chamber, knock-down of common mosquitoes; settings: 0.7 ml of 0.5% oil solution sprayed in 0.34 m^3 glass chamber, two repetitions
Protocol: Ten (5 males and 5 females) adult houseflies (Musca domestica) were released in a glass chamber (70 cm cube, capacity: 0.34 m^3). Seven-tenth milliliter (0.7 ml) of the oil solution obtained in Preparation example 9 was applied into the chamber with a spray gun at a pressure of 0.9 kg/cm^2. Fifteen minutes after spraying, the knocked-down houseflies were counted. Reference compound was also tested.
The same procedure was performed as in Test example 1 except that ten female adult common mosquitoes (Culex pipiens pallens) in place of houseflies were used. As a result of two repetitions, the knock-down percentage at 15 minutes after spraying was 100%.

[2] = system: adult German cockroaches (Blattella germanica); assay: Test Example 3: direct spray of oil solution, knock-down of German cockroaches; settings: 1.5 ml of 0.5% oil solution sprayed directly, one minute after spraying
Protocol: A square of paper (side: 20 cm) was covered on the iron net set on the bottom of the metallic chamber (46 cm×46 cm, 70 cm in height). A container (8.75 cm in diameter, 7.5 cm in height, having 16-mesh net at the bottom and spreading butter on the wall for preventing escape) was set on the paper. In the container, ten (5 males and 5 females) adult German cockroaches (Blattella germanica) were released. By means of spray gun, 1.5 ml of the oil solution obtained in Preparation example 9 was applied to the test insects at a pressure of 0.42 kg/cm^2 from the upper part of the chamber. The container was taken out of the chamber 30 seconds after spraying and the test insects were transferred to a clean plastic cup. One minute after spraying, the knocked-down cockroaches were counted. As a result, the knock-down percentage was 100%. Reference compound was also tested and the knock-down percentage was 42%.

[3] = system: adult smokybrown cockroaches (Periplaneta fuliginosa); assay: Test Example 4: smoking formulation in 28 m^3 chamber, smokybrown cockroaches; settings: 10 g smoking (Preparation example 25) in 28 m^3 chamber
Source text: In a test chamber of 3 m×4 m and 2.3 m in height (28 m^3), two plastic cups were put at two corners, wherein each cup has ten (5 males and 5 females) adult German cockroaches (Blattella germanica) therein. Ten grams (10 g) of the smoking obtained in Preparation example 25 and 50g of magnesium oxide were charged into each of the cells in an aluminum container having an aluminum wall. The cell charged magnesium oxide has small holes. The aluminum container was dipped into water in the plastic container set in the test chamber. The smoking was heated to release the vaporized active ingredient by the reaction heats of magnesium oxide with water. After 2 hours, knock-down percentage was observed. Further, the cockroaches were transferred to a clean plastic cup and given foods and water. The mortality was observed after 7 days.
Furthermore, the same tests were performed except that six (3 males and 3 females) adult smokybrown cockroaches (Periplaneta fuliginosa) and six (3 males and 3 females) adult American cockroaches (Periplaneta americana) were used in place of ten German cockroaches.

[4] = system: adult cat fleas (Ctenocephalides felis); assay: Test Example 7: treated filter paper contact, adult cat fleas; settings: three repetitions
Protocol: A designated amount of the Pyrone Compound was dissolved in acetone to give a 0.2 ml solution, which was uniformly treated on a filter paper having 3.8 cm in diameter, and air-dried for one hour. The filter paper was filled in a lid of a 200 ml glass bottle. Twenty adult cat fleas (Ctenocephalides felis) were released in the glass bottle, which was followed by covering with the lid. The glass bottle was upset for making the fleas contact with the filter paper, and kept at room temperature (25±3° C.) for one day. After that, the mortality was observed.

[5] = system: adult pill bugs (Armadillidium vulgare); assay: Test Example 12: oil-based aerosol spray, pill bugs; settings: about 450 mg of 1.0% oil-based aerosol sprayed, after 3 days
Protocol: (§1) According to Preparation examples 10-14, 1.0% oil-based aerosol of the Pyrone Compound was obtained. A container (8.75 cm in diameter, 7.5 cm in height, bottom covered 16-mesh iron net and inside wall painted butter for preventing tested pill bugs to escape) having 5 adult pill bugs (Armadillidium vulgare) therein was set on the bottom center of a glass cylinder having 20 cm in diameter and 60 cm in height. About 450 mg of the above oil-based aerosol were sprayed to the pill bugs from the upper part of the cylinder. After 30 seconds, the pill bugs were taken out and put into a clean plastic cup having soil and dead leaves therein. The pill bugs were given food and water and observed after 3 days. The tests were repeated twice. The mortality was 100%. Reference compound was also tested and the mortality was 40%.

adult Porcellio scaber = assay: Test Example 13: oil-based aerosol spray, Porcellio scaber; settings: about 450 mg of 1.0% oil-based aerosol sprayed, after 3 days
Protocol: as §1
The same procedure was performed as in Test example 12 except that 5 adult Porcellio scaber were used in place of Armadillidium vulgare. As a result, the mortality of the Pyrone Compound was 100%.

[6] = system: eggs of peach fruit moth (Carposina niponensis); assay: Test Example 20: treated artificial food, peach fruit moth eggs; settings: 1 ml of 500 ppm dilution (Preparation example 2) in 6 g artificial food, after 10 days
Protocol: The formulation obtained in Preparation example 2 was diluted with water to make the concentration of the Pyrone Compound to 500 ppm. One milliliter (1 ml) of the dilution was added to 6 g of artificial food (Insecta LF produced by Nihon Nosankogyo Co.) in plastic cup having 5.5 cm in diameter. About 50 eggs of peach fruit moth (Carposina niponensis) laid on nylon cloth were put into the plastic cup. After 10 days, the ovicidal effect was 90% or more.

## Cc1cc(O)c(C(=O)CC(C)C)c(=O)o1 [The Pyrone Compound]
[1]
  knock-down percentage at 15 minutes after spraying: 100%
[2]
  knock-down percentage: 100%
[3]; after 2 hours
  Knock-down percentage (%): 100%
[3]; after 7 days
  Mortality (%): 100%
[4]; dosage 200 mg/m^2, one day
  Mortality (%): 98%
[4]; dosage 800 mg/m^2, one day
  Mortality (%): 100%
[5]
  mortality: 100%
Adult Porcellio scaber
  mortality: 100%
[6]
  ovicidal effect: ≥ 90%
